Reference: ChEMBL document CHEMBL5120752, “Galangin 3-benzyl-5-methylether derivatives function as an adiponectin synthesis-promoting peroxisome proliferator-activated receptor γ partial agonist” (Bioorg Med Chem, 2022)
Activity calls are given as the source filed them. The calls are words filed in the database; no cut-off is given here.

Columns and labels:
[1] = test system: Mesenchymal stem cells; assay: Induction of adiponectin synthesis in human differentiated BMMSC cells at 10 uM measured after 5 days in the presence of IDX induction medium by ELISA; format: functional, cell-based; conditions: time 5.0 day
[2] = test system: Mesenchymal stem cells; assay: Induction of adiponectin synthesis in human differentiated BMMSC cells assessed as lipid accumulation at 10 uM measured after 5 days in the presence of IDX induction medium by Oil red O staining based inverted phase contrast microscope analysis; format: functional, cell-based; conditions: time 5.0 day
[3] = test system: Mesenchymal stem cells; assay: Upregulation of adiponectin mRNA expression in human BMMSC cells at 10 uM measured after 3 days by qRT-PCR analysis; format: functional, cell-based; conditions: time 3.0 day
[4] = test system: Mesenchymal stem cells; assay: Upregulation of FABP4 mRNA expression in human BMMSC cells at 10 uM measured after 3 days by qRT-PCR analysis; format: functional, cell-based; conditions: time 3.0 day
[5] = test system: Mesenchymal stem cells; assay: Upregulation of PPARgamma mRNA expression in human BMMSC cells at 10 uM measured after 3 days by qRT-PCR analysis; format: functional, cell-based; conditions: time 3.0 day
[6] = target: Estrogen receptor beta (Homo sapiens) (UniProt Q92731); assay: Binding affinity to ERbeta (unknown origin) at 10 uM by Lanthascreen TR-FRET assay relative to control
[7] = target: T1, Peroxisome proliferator-activated receptor gamma (Homo sapiens, UniProt P37231); assay: Binding affinity to PPARgamma (unknown origin) assessed as inhibition constant by Lanthascreen TR-FRET assay relative to control
T1 sequence (P37231 whole entry): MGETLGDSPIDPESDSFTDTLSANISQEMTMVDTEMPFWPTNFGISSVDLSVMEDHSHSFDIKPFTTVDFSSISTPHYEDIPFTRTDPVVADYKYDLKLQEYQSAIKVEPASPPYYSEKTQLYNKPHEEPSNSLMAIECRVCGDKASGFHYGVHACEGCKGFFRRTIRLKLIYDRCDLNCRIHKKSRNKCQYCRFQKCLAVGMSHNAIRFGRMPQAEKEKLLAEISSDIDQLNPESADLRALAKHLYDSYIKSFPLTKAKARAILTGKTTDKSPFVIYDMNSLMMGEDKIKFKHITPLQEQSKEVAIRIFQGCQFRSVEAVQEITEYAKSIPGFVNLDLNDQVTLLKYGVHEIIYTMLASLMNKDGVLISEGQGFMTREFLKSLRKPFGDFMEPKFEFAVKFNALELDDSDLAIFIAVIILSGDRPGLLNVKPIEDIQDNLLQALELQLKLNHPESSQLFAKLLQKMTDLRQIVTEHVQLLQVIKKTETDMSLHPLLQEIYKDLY

[8] = test system: Mesenchymal stem cells; assay: Induction of adiponectin synthesis in human differentiated BMMSC cells assessed as fold increase in adiponectin level at 10 uM measured after 5 days in the presence of IDX induction medium by ELISA; format: functional; conditions: time 5 day
[9] = test system: Mesenchymal stem cells; assay: Induction of adiponectin synthesis in human differentiated BMMSC cells measured after 5 days in the presence of IDX induction medium by ELISA; format: functional, cell-based; conditions: 120 h

Sequence of Estrogen receptor beta (Homo sapiens) (Q92731 whole entry): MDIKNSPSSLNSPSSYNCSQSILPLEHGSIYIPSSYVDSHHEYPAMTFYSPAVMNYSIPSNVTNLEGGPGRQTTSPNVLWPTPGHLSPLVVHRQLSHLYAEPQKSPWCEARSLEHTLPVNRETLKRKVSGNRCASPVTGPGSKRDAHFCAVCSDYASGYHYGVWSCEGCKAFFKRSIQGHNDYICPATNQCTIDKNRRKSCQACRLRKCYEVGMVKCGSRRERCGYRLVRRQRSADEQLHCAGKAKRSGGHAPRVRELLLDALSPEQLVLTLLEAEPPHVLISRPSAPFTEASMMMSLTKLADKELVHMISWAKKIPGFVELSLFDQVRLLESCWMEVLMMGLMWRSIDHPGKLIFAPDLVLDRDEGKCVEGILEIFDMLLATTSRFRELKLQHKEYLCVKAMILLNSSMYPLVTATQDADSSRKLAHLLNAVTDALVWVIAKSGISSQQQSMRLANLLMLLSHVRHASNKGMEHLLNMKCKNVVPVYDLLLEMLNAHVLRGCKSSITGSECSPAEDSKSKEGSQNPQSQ

Activity [6] [%] | Ki [7] [µM] | SMILES | Activity [1] | Activity [2] | Activity [3] | Activity [4] | Activity [5] | fold change (FC) [8] | EC50 [9] [µM]
– | – | COc1cc(OC(=O)c2ccccc2)cc2oc(-c3ccccc3)c(O)c(=O)c12 | Active | – | – | – | – | – | –
79.4 | 5.6 | O=c1c(O)c(-c2ccccc2)oc2cc(O)cc(O)c12 [GALANGIN] | Active | Active | Active | Active | Active | – | –
– | – | COc1cc(OC(=O)c2ccccc2)cc2oc(-c3ccccc3)c(OCc3ccccc3)c(=O)c12 | Active | – | – | – | – | 2.76 | –
– | – | COc1cc(O)c2c(=O)c(OCc3ccccc3)c(-c3ccccc3)oc2c1 | Active | – | – | – | – | – | –
– | – | COc1cc(O)cc2oc(-c3ccccc3)c(OCc3ccccc3)c(=O)c12 | Active | Active | Active | Active | Active | 2.88 | 14.9
– | – | COc1cc(OC)c2c(=O)c(OCc3ccccc3)c(-c3ccccc3)oc2c1 | Active | Active | Active | Active | Active | – | –
